In US11440923B2, “Substituted macrocyclic indole derivatives” (Bayer Aktiengesellschaft, priority 2017, dated 2022) one finds IC50 data, which are given here for 13 compounds.

Each structure is given as a SMILES string. Counter-ions that a name gives are not always drawn. Like-named read-outs stand apart in the source and are kept apart here.

One experiment addresses BCL-XL (Homo sapiens (Human), UniProt Q07817). The experiment can be described thus: Protein-protein interaction assay BCL-XL/Bad BH3 peptide (BCL-XL assay, TR-FRET). It is filed as binding. The following applies: read-out: BCL-XL Assay IC50 (median). Summed up: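 Human BCL-XL (aa 1-212, C-terminal His6, E. coli) at 1 nM end concentration, preincubated 10 min at 22 °C with compound (11 concentrations, 0.1 nM–20 μM, duplicates), then biotinylated Bad BH3 peptide (1 nM) added with anti-His-Eu cryptate/streptavidin-XL665. Incubation 1 h at 22 °C then overnight at 4 °C; TR-FRET 665/620 ratio, IC50 from 4-parameter fit.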
Background: In TR-FRET formats the signal depends on donor and acceptor labels being close together.

The subject of the next experiment is SUDHL5 cells. The experiment is described as follows: Antiproliferation assay SUDHL5 (Assay 7). It is filed as cell-based. Summed up:
(§1)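 Cells were plated overnight at 37° C, then compound-treated for 72 h. Viability was measured by CellTiter-Glo luminescence.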

A further experiment deals with HMC-1-8 cells. The experiment can be described thus: Antiproliferation assay HMC-1-8 (Assay 7). It is filed as cell-based. The following applies: 72 h, CellTiter-Glo, read-out: Antiproli HMC-1-8 IC50 median. In short, it runs like this:
as §1
In general terms: In ATP-based viability assays light output follows the ATP content of the culture.

Setting [1] is: Homo sapiens, SU-DHL-5, 72 h, 72 h, CellTiter-Glo; read-out: Antiproli SUDHL5 IC50 (median).
[2] abbreviates: read-out: Antiproli SUDHL5 IC50 (median); 72 h, CellTiter-Glo.
The mark [3] stands for this setting: 72 h, CellTiter-Glo; read-out: Antiproli SUDHL5 IC50 (median).

Sequence of BCL-XL (Q07817 1-212): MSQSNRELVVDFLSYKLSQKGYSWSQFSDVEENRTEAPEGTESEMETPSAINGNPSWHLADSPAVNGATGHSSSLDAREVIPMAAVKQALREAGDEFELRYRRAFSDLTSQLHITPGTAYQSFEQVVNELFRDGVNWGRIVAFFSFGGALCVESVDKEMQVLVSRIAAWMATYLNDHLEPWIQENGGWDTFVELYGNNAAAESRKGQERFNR

As usually defined, the IC50 is the midpoint of a concentration-inhibition curve. For `Cc1c2c(nn1C)C(C)OCCCCn1c(C(=O)O)c(CCCOc3cccc4ccccc34)c3cccc-2c31` (racemic) [Example 1, (rac)-2,3,15-trimethyl-7-[3-(naphthalen-1-yloxy)propyl]-2,10,11,12,13,15-hexahydropyrazolo[4′,3′:9,10][1,6]oxazacycloundecino[8,7,6-hi]indole-8-carboxylic Acid (Mixture of Stereoisomers)], the IC50 on BCL-XL was more than 20 µM; in the experiment with SUDHL5 cells (setting [1]), 1.5 µM.

Consider `Cc1c2c(nn1C)C(CCN1CCOCC1)OCCCCn1c(C(=O)O)c(CCCOc3cccc4ccccc34)c3ccc(F)c-2c31` (racemic) [Example 7, (rac)-4-fluoro-2,3-dimethyl-15-[2-(morpholin-4-yl)ethyl]-7-[3-(naphthalen-1-yloxy)propyl]-2,10,11,12,13,15-hexahydropyrazolo[4′,3′:9,10][1,6]oxazacycloundecino[8,7,6-hi]indole-8-carboxylic Acid], for which the values for the IC50 at BCL-XL and in the experiment on SUDHL5 cells (setting [1]) were more than 20 µM and 0.2 µM, respectively.

For `CCc1c2c(nn1C)C(CCN1CCOCC1)OCCCCn1c(C(=O)O)c(CCCOc3cccc4ccccc34)c3ccc(F)c-2c31` (racemic) [Example 10, (rac)-3-ethyl-4-fluoro-2-methyl-15-[2-(morpholin-4-yl)ethyl]-7-[3-(naphthalen-1-yloxy)propyl]-2,10,11,12,13,15-hexahydropyrazolo[4′,3′:9,10][1,6]oxazacycloundecino[8,7,6-hi]indole-8-carboxylic Acid], the results for the IC50 on BCL-XL, with SUDHL5 cells (setting [1]) and in the experiment with HMC-1-8 cells were more than 20 µM, 0.16 µM and 1.49 µM, respectively.

As for `Cc1c2c(nn1C)C(CCN1CCOCC1)OCCCCn1c(C(=O)O)c(CCCOc3cccc4ccccc34)c3ccc(Cl)c-2c31` (racemic) [Example 13, (rac)-4-chloro-2,3-dimethyl-15-[2-(morpholin-4-yl)ethyl]-7-{3-[(naphthalen-1-yl)oxy]propyl}-2,10,11,12,13,15-hexahydropyrazolo[4′,3′:9,10][1,6]oxazacycloundecino[8,7,6-hi]indole-8-carboxylic Acid], the IC50 at BCL-XL is more than 20 µM; in the experiment on SUDHL5 cells (setting [1]) it was 0.11 µM.

For the compound `Cc1c2c(nn1C)C(CCN1CCOCC1)OCCCCn1c(C(=O)O)c(CCCOc3cccc4cc(F)ccc34)c3ccc(Cl)c-2c31` (racemic) [Example 16, (rac)-4-chloro-7-{3-[(6-fluoronaphthalen-1-yl)oxy]propyl}-2,3-dimethyl-15-[2-(morpholin-4-yl)ethyl]-2,10,11,12,13,15-hexahydropyrazolo[4′,3′:9,10][1,6]oxazacycloundecino[8,7,6-hi]indole-8-carboxylic Acid], the IC50 was more than 20 µM on BCL-XL, 0.019 µM with SUDHL5 cells (setting [1]) and 0.322 µM with HMC-1-8 cells.

Regarding `Cc1c2c(nn1C)C(CCN1CCOCC1)OCCCCn1c(C(=O)O)c(CCCOc3cccc4cc(F)ccc34)c3ccc(F)c-2c31` (racemic) [Example 19, (rac)-4-fluoro-7-{3-[(6-fluoronaphthalen-1-yl)oxy]propyl}-2,3-dimethyl-15-[2-(morpholin-4-yl)ethyl]-2,10,11,12,13,15-hexahydropyrazolo[4′,3′:9,10][1,6]oxazacycloundecino[8,7,6-hi]indole-8-carboxylic Acid], the IC50 was more than 20 µM on BCL-XL and 0.077 µM in the experiment with SUDHL5 cells (setting [1]).

Consider `CCc1c2c(nn1C)C(CCN1CCC(F)(F)C1)OCCCCn1c(C(=O)O)c(CCCOc3cccc4cc(F)ccc34)c3ccc(Cl)c-2c31` (single isomer, unassigned; enantiomer 1) [Example 56, 4-chloro-15-[2-(3,3-difluoropyrrolidin-1-yl)ethyl]-3-ethyl-7-{3-[(6-fluoronaphthalen-1-yl)oxy]propyl}-2-methyl-2,10,11,12,13,15-hexahydropyrazolo[4′,3′:9,10][1,6]oxazacycloundecino[8,7,6-hi]indole-8-carboxylic Acid—N-ethylethanamine Salt (Enantiomer 1)], for which the results for the IC50 on BCL-XL and with SUDHL5 cells (setting [2]) were more than 20 µM and 0.087 µM, respectively.

As for `Cc1c2c(nn1C)C(CCN1CCOCC1)OCCCCn1c(C(=O)O)c(CCCOc3cccc4ccccc34)c3ccc(F)c-2c31` (single isomer, unassigned; enantiomer 2) [Example 9, 4-fluoro-2,3-dimethyl-15-[2-(morpholin-4-yl)ethyl]-7-{3-[(naphthalen-1-yl)oxy]propyl}-2,10,11,12,13,15-hexahydropyrazolo[4′,3′:9,10][1,6]oxazacycloundecino[8,7,6-hi]indole-8-carboxylic Acid—N-ethylethanamine Salt (Enantiomer 2)], the IC50 at BCL-XL is more than 20 µM; in the experiment with SUDHL5 cells (setting [2]), 4.3 µM.

`CCc1c2c(nn1C)C(CCN1CCOCC1)OCCCCn1c(C(=O)O)c(CCCOc3cccc4ccccc34)c3ccc(F)c-2c31` (single isomer, unassigned; enantiomer 2) [Example 12, 3-ethyl-4-fluoro-2-methyl-15-[2-(morpholin-4-yl)ethyl]-7-{3-[(naphthalen-1-yl)oxy]propyl}-2,10,11,12,13,15-hexahydropyrazolo[4′,3′:9,10][1,6]oxazacycloundecino[8,7,6-hi]indole-8-carboxylic Acid—N-ethylethanamine Salt (Enantiomer 2)]: the IC50 at BCL-XL is more than 20 µM; in the experiment on SUDHL5 cells (setting [2]), 2.6 µM.

For the compound `Cc1c2c(nn1C)C(CCN1CCOCC1)OCCCCn1c(C(=O)O)c(CCCOc3cccc4ccccc34)c3ccc(Cl)c-2c31` (single isomer, unassigned; enantiomer 2) [Example 15, 4-chloro-2,3-dimethyl-15-[2-(morpholin-4-yl)ethyl]-7-{3-[(naphthalen-1-yl)oxy]propyl}-2,10,11,12,13,15-hexahydropyrazolo[4′,3′:9,10][1,6]oxazacycloundecino[8,7,6-hi]indole-8-carboxylic Acid (Enantiomer 2)], the results for the IC50 on BCL-XL and in the experiment with SUDHL5 cells (setting [3]) were more than 20 µM and 2.5 µM, respectively.

Take `Cc1c2c(nn1C)C(C)OCCCCn1c(C(=O)O)c(CCCOc3cccc4ccccc34)c3cccc-2c31` (single isomer, unassigned; stereoisomer 1) [Example 2, 2,3,15-trimethyl-7-[3-(naphthalen-1-yloxy)propyl]-2,10,11,12,13,15-hexahydropyrazolo[4′,3′:9,10][1,6]oxazacycloundecino[8,7,6-hi]indole-8-carboxylic Acid Trifluoroacetic Acid Salt (Stereoisomer 1)]: the values for the IC50 at BCL-XL and with SUDHL5 cells (setting [2]) were more than 20 µM and 3.5 µM, respectively.

Take `Cc1c2c(nn1C)C(C)OCCCCn1c(C(=O)O)c(CCCOc3cccc4ccccc34)c3cccc-2c31` (single isomer, unassigned; stereoisomer 2) [Example 3, 2,3,15-trimethyl-7-[3-(naphthalen-1-yloxy)propyl]-2,10,11,12,13,15-hexahydropyrazolo[4′,3′:9,10][1,6]oxazacycloundecino[8,7,6-hi]indole-8-carboxylic Acid Trifluoroacetic Acid Salt (Stereoisomer 2)]: the IC50 was more than 20 µM at BCL-XL and 20 µM in the experiment on SUDHL5 cells (setting [2]).

For `Cc1c2c(nn1C)C(CCN1CCOCC1)OCCCCn1c(C(=O)O)c(CCCOc3cccc4ccccc34)c3cccc-2c31` (single isomer, unassigned; stereoisomer 2) [Example 6, 2,3-dimethyl-15-[2-(morpholin-4-yl)ethyl]-7-[3-(naphthalen-1-yloxy)propyl]-2,10,11,12,13,15-hexahydropyrazolo[4′,3′:9,10][1,6]oxazacycloundecino[8,7,6-hi]indole-8-carboxylic Acid (Stereoisomer 2)], the IC50 at BCL-XL is more than 20 µM; with SUDHL5 cells (setting [3]) it was 8.2 µM.
